Assay results published in patent US7084268B1, “Carbapenem compound crystals and interjection preparations” (Eisai Co., Ltd., priority 1999, dated 2006).
Structures can show the parent of a compound that is named as a salt.

Key:
[1] = Storage of crystals in bottles without caps at various relative humidity, with or without oxygen absorbent; assay type: physicochemical; settings: for water content (hygroscopicity): 25° C., 2 weeks, listed as monohydrate crystals, monohydrochloride monohydrate
Experimental: The novel carbapenem hydrochloride crystals were weighed in 25 mL wide-mouthed glass bottles (30 mg/bottle), and in the bottles without caps, the monohydrate was stored for 1 week at 40° C. at a relative humidity of 0%, 19.2%, 53% and 75%, and the trihydrate was stored for 2 weeks at 25° C. at a relative humidity of 11%, 33%, 51%, 75% and 93%. Then, the crystals were measured for their color difference (ΔE), water content, powdery X-ray diffraction pattern, and content of residual carbapenem. The monohydrate was also examined in the presence or absence of an oxygen absorbent (trade name: Ageless, produced by Mitsubishi Gas Chemical Co., Ltd.) during storage at each relative humidity. The oxygen absorbent makes oxygen-free conditions under which the preparation is placed.

[2] = as above; assay type: physicochemical; settings: 25° C., 2 weeks, listed as monohydrate crystals, monohydrochloride monohydrate
[3] = 40° C., 1 week, relative humidity 0%, oxygen absorbent absence
[4] = 40° C., 1 week, relative humidity 0%, oxygen absorbent presence
[5] = 40° C., 1 week, relative humidity 19.2%, oxygen absorbent absence
[6] = 40° C., 1 week, relative humidity 19.2%, oxygen absorbent presence
[7] = 40° C., 1 week, relative humidity 53%, oxygen absorbent absence
[8] = 40° C., 1 week, relative humidity 53%, oxygen absorbent presence
[9] = 40° C., 1 week, relative humidity 75%, oxygen absorbent absence
[10] = 40° C., 1 week, relative humidity 75%, oxygen absorbent presence
[11] = monohydrate crystals, initial stage

C[C@@H](O)[C@H]1C(=O)N2C(C(=O)O)=C(S[C@@H]3CN[C@H]([C@H](O)[C@@H]4CCNC4)C3)[C@H](C)[C@H]12 [monohydrate, (+)-(1R,5S,6S)-6-[(R)-1-Hydroxyethyl]-1-methyl-2-[(2S,4S)-2-[(3R)-pyrrolidine-3-yl-(R)-hydroxymethyl]pyrrolidine-4-yl]thio-1-carbapen-2-em-3-carboxylic acid monohydrochloride monohydrate]
water content (hygroscopicity) ([1]; relative humidity 33%): 5.6%
water content (hygroscopicity) ([1]; relative humidity 51%): 5.9%
color difference (ΔE) [1, 3]: 1.87
content of residual carbapenem compound [1, 3]: 101.1%
powdery X-ray diffraction pattern [1, 3]: no change
water content [1, 3]: 5.08%
color difference (ΔE) [1, 4]: 2.95
content of residual carbapenem compound [1, 4]: 100.3%
powdery X-ray diffraction pattern [1, 4]: no change
water content [1, 4]: 5.31%
color difference (ΔE) [1, 5]: 5.01
content of residual carbapenem compound [1, 5]: 99.9%
powdery X-ray diffraction pattern [1, 5]: no change
water content [1, 5]: 6.18%
color difference (ΔE) [1, 6]: 3.97
content of residual carbapenem compound [1, 6]: 100.5%
powdery X-ray diffraction pattern [1, 6]: no change
water content [1, 6]: 5.72%
color difference (ΔE) [1, 7]: 6.28
content of residual carbapenem compound [1, 7]: 100.6%
powdery X-ray diffraction pattern [1, 7]: no change
water content [1, 7]: 6.17%
color difference (ΔE) [1, 8]: 5.85
content of residual carbapenem compound [1, 8]: 102.0%
powdery X-ray diffraction pattern [1, 8]: no change
water content [1, 8]: 6.29%
color difference (ΔE) [1, 9]: 35.98
content of residual carbapenem compound [1, 9]: 99.8%
powdery X-ray diffraction pattern [1, 9]: no change
water content [1, 9]: 6.60%
color difference (ΔE) [1, 10]: 4.56
content of residual carbapenem compound [1, 10]: 100.8%
powdery X-ray diffraction pattern [1, 10]: no change
water content [1, 10]: 6.43%
HPLC impurity [1, 11]: 0.93%
water content [1, 11]: 5.49%
water content (hygroscopicity) ([2]; relative humidity 11%): 5.0%
water content (hygroscopicity) ([2]; relative humidity 75%): 6.2%
water content (hygroscopicity) ([2]; relative humidity 93%): 8.4%
